Laboratory results as given in the supplement of paper PMC10331698.
± gives the standard deviation of the averaged measurements.

Assays:
Assay in all cases: level (log10 ratio to DMSO vehicle control); higher = higher biomarker level / cell amount than vehicle control
Conditions in all cases: in DMSO
[1] = compound: CC(C)(C)C(=O)CC(=O)C(F)(F)C(F)(F)C(F)(F)F [(Heptafluorobutanoyl)pivaloylmethane]
Protocol: (§1)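 BioMAP Diversity Plus panel of 12 human primary cell co-culture systems (3C, 4H, LPS, SAg, BT, BF4T, BE3C, CASM3C, HDF3CGF, KF3CT, MyoF, Mphg). Compounds were added 1 h before stimulation and left for 24 h (MyoF 48 h; BT 72 h for soluble read-outs or 6 d for IgG). Biomarkers were read by ELISA, cytotoxicity by SRB, PBMC viability and proliferation by Alamar Blue. Each well value was divided by the mean of 8 DMSO control wells on the same plate and log10 transformed; duplicate blinded samples were tested at 4 concentrations.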

[2] = compound: FC(F)(F)C(F)(F)C(F)(F)C(F)(F)C(F)(F)C(F)(F)C(F)(F)CCI [1-Iodo-1H,1H,2H,2H-perfluorononane]
Protocol: as §1

Perfluorooctanamide = compound: NC(=O)C(F)(F)C(F)(F)C(F)(F)C(F)(F)C(F)(F)C(F)(F)C(F)(F)F [Perfluorooctanamide]
Protocol: as §1

[3] = compound: O=C(O)C(F)(F)C(F)(F)C(F)(F)C(F)(F)C(F)(F)C(F)(F)C(F)(F)C(F)(F)C(F)(F)C(F)(F)C(F)(F)C(F)(F)C(F)(F)F [Perfluorotetradecanoic acid]
Protocol: as §1

[4] = compound: O=C(O)CCC(F)(F)C(F)(F)C(F)(F)C(F)(F)C(F)(F)F [2H,2H,3H,3H-Perfluorooctanoic acid]
Protocol: as §1

[5] = compound: O=S(=O)(O)C(F)(F)C(F)(F)C(F)(F)C(F)(F)F [Perfluorobutanesulfonic acid]
Protocol: as §1

1H,1H-Heptafluorobutanol = compound: OCC(F)(F)C(F)(F)C(F)(F)F [1H,1H-Heptafluorobutanol]
Protocol: as §1

| Test System | level (log10) ([1]; 6700 nM) | level (log10) ([1]; 20000 nM) | level (log10) ([1]; 60000 nM) | level (log10) ([2]; 6700 nM) | level (log10) ([2]; 20000 nM) | level (log10) (Perfluorooctanamide; 6700 nM) | level (log10) (Perfluorooctanamide; 20000 nM) | level (log10) (Perfluorooctanamide; 60000 nM) | level (log10) ([3]; 6700 nM) | level (log10) ([3]; 20000 nM) | level (log10) ([4]; 6700 nM) | level (log10) ([4]; 20000 nM) | level (log10) ([4]; 60000 nM) | level (log10) ([5]; 6700 nM) | level (log10) ([5]; 20000 nM) | level (log10) ([5]; 60000 nM) | level (log10) (1H,1H-Heptafluorobutanol; 6700 nM) | level (log10) (1H,1H-Heptafluorobutanol; 20000 nM) | level (log10) (1H,1H-Heptafluorobutanol; 60000 nM) |
| --- | --- | --- | --- | --- | --- | --- | --- | --- | --- | --- | --- | --- | --- | --- | --- | --- | --- | --- | --- |
| KF3CT:PAI-I | -0.0065 ± 0.019 | -0.0025 ± 0.016 | 0.004 ± 0.02 | 0.0115 ± 0.022 | 0.017 ± 0.021 | -0.004 ± 0.011 | -0.0085 ± 0.011 | 0.0005 ± 0.0064 | -0.015 ± 0.0014 | 0 ± 0.0071 | -0.0015 ± 0.00071 | -0.0065 ± 0.0021 | -0.017 ± 0.0085 | -0.014 ± 0.048 | 0.003 ± 0.0099 | -0.007 ± 0.027 | 0.0075 ± 0.0021 | -0.0005 ± 0.0035 | -0.0045 ± 0.0021 |
| KF3CT:SRB | -0.0055 ± 0.0021 | -0.003 ± 0.0071 | -0.0065 ± 0.005 | 0.0005 ± 0.005 | 0.005 ± 0.013 | -0.0065 ± 0.005 | -0.0075 ± 0.0035 | 0 ± 0.0028 | -0.0005 ± 0.0035 | 0.0025 ± 0.0078 | -0.006 ± 0.0014 | -0.0015 ± 0.005 | 0.006 ± 0.0085 | 0.002 ± 0.0042 | 0 ± 0.0014 | 0 ± 0.0014 | 0.0015 ± 0.015 | 0.0005 ± 0.00071 | 0.0095 ± 0.0021 |
| KF3CT:TIMP-2 | 0.001 ± 0.021 | 0.002 ± 0.014 | -0.015 ± 0.0014 | 0.0145 ± 0.03 | -0.0035 ± 0.0064 | -0.045 ± 0.0085 | -0.0245 ± 0.04 | -0.033 ± 0.011 | 0.0455 ± 0.032 | 0.0065 ± 0.012 | -0.011 | -0.02 ± 0.024 | 0.015 ± 0.0099 | -0.0265 ± 0.005 | -0.0045 ± 0.029 | -0.0135 ± 0.022 | 0.0155 ± 0.011 | 0.002 ± 0.0057 | -0.007 ± 0.0042 |
| KF3CT:uPA | 0.0025 ± 0.016 | -0.0055 ± 0.012 | -0.003 ± 0.027 | 0.0025 ± 0.018 | 0.006 ± 0.016 | -0.012 ± 0.037 | 0.0035 ± 0.015 | -0.0155 ± 0.012 | -0.014 ± 0.038 | 0.0115 ± 0.032 | -0.008 ± 0.013 | -0.0095 ± 0.033 | -0.004 ± 0.041 | -0.0275 ± 0.029 | -0.0215 ± 0.00071 | -0.0035 ± 0.00071 | 0.0095 ± 0.0021 | 0.0015 ± 0.0078 | 0.0065 ± 0.00071 |
| MyoF:CD106/VCAM-1 | -0.011 ± 0.035 | -0.0065 ± 0.028 | 0.005 ± 0.0085 | -0.007 ± 0.023 | -0.003 ± 0.0014 | -0.0115 ± 0.015 | 0.014 ± 0.0014 | -0.0185 ± 0.011 | -0.0045 ± 0.019 | 0.013 ± 0.025 | -0.0015 ± 0.019 | -0.0115 ± 0.021 | 0.0005 ± 0.012 | -0.004 ± 0.0028 | 0.0085 ± 0.0021 | 0.0155 ± 0.016 | 0.0025 ± 0.022 | 0.0025 ± 0.011 | 0.008 ± 0.0014 |
| MyoF:CXCL8/IL-8 | 0.022 ± 0.05 | 0.032 ± 0.068 | 0.03 ± 0.055 | 0.0195 ± 0.0064 | 0.0335 ± 0.025 | -0.01 ± 0.0071 | 0.0135 ± 0.023 | 0.03 ± 0.014 | 0.0095 ± 0.0078 | 0.017 ± 0.0071 | -0.032 ± 0.0042 | -0.0215 ± 0.005 | -0.018 | 0.007 ± 0.042 | 0.0425 ± 0.021 | 0.0665 ± 0.0064 | -0.0145 ± 0.033 | 0.016 ± 0.02 | 0.008 ± 0.0057 |
| MyoF:Collagen I | -0.0165 ± 0.011 | -0.007 ± 0.0099 | 0.0065 ± 0.013 | 0.007 ± 0.0042 | -0.015 ± 0.028 | -0.007 ± 0.0099 | -0.0265 ± 0.015 | -0.0435 ± 0.0035 | 0.0015 ± 0.0078 | 0.0215 ± 0.033 | 0.013 ± 0.0014 | -0.0005 ± 0.0064 | 0.0055 ± 0.018 | -0.017 ± 0.023 | -0.004 ± 0.0014 | -0.0235 ± 0.0064 | -0.01 ± 0.024 | -0.0065 ± 0.022 | -0.0005 ± 0.013 |
| MyoF:Collagen III | -0.0115 ± 0.0021 | -0.002 ± 0.013 | 0.026 ± 0.0028 | 0.0145 ± 0.0021 | -0.0055 ± 0.03 | -0.0005 ± 0.029 | 0.0045 ± 0.033 | 0.002 ± 0.013 | -0.015 | -0.002 ± 0.03 | -0.021 ± 0.023 | -0.026 ± 0.024 | -0.0115 ± 0.022 | 0.02 ± 0.024 | 0.0265 ± 0.0064 | 0.0145 ± 0.0064 | 0.0065 ± 0.0035 | -0.0065 ± 0.005 | -0.0065 ± 0.0064 |
